≈ marks a conversion by molar mass, not a printed value. Entries after “also recorded” stand apart in the source; their conditions may differ. Structures can show the parent of a compound that is named as a salt.
Tests used:
[1] = test system: MONO-MAC-1 (acute monocytic leukemia); test: CellTiter-Blue Cell Viability Assay, MONO-MAC-1; assay type: cell-based
Protocol: (§1) EOL-1 (acute myeloid eosinophilic leukemia), MOLM-13 (acute myeloid leukemia), MONO-MAC-1 (acute monocytic leukemia), and MONO-MVAC-6 (acute monocytic leukemia). In vitro screening was performed by Charles River using the CellTiter-Blue® Cell Viability Assay.

[2] = target: T1, c-KIT (Homo sapiens, UniProt P10721); test: Cellular c-KIT phosphorylation assay in Mo7e cells (sandwich-ELISA); assay type: cell-based; conditions: Mo7e cells, 90 min compound, SCF stimulation; read-out: IC50 [nM] inhibition of c-KIT in phosphorylation assay
T1 construct: expresses endogenously a high level of wild-type c-KIT; endogenous in cells; host or cells: Mo7e (human acute megakaryoblastic leukemia)
T1 sequence (P10721 26-976): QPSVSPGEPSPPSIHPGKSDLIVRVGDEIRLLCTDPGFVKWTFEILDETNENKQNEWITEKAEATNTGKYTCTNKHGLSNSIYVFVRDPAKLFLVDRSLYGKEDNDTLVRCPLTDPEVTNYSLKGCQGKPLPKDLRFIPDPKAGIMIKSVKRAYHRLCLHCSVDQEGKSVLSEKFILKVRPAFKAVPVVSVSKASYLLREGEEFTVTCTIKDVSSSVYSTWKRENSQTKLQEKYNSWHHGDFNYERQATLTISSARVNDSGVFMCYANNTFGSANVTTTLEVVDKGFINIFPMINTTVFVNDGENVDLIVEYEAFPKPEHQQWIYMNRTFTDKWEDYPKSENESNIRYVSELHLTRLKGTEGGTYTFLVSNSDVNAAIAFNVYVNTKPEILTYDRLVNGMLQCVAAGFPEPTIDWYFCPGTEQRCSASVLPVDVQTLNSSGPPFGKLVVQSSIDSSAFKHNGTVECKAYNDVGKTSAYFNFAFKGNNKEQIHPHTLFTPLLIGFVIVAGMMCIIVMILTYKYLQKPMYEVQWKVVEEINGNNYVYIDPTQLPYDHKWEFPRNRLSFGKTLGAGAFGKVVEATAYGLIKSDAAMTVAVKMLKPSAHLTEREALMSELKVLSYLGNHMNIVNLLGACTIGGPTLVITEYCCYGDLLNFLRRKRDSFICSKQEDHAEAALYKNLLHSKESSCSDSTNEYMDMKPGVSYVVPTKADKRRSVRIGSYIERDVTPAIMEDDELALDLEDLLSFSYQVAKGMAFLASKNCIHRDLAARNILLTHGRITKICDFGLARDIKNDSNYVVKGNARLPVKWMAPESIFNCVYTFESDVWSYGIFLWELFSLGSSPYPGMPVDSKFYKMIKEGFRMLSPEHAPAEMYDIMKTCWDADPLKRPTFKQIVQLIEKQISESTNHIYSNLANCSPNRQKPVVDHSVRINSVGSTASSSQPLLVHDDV
Protocol: In the cellular c-KIT phosphorylation assay the human acute megakaryoblastic leukemia cell line Mo7e was used, which expresses endogenously a high level of wild-type c-KIT. Stimulation of these cells with human stem cell factor (SCF) results in receptor tyrosine autophosphorylation. Mo7e cells were plated in RPMI supplemented with 20% FCS and 10 ng/ml GM-CSF in multiwell cell culture plates. After serum- and growth factor-starvation overnight cells were incubated with compounds (90 min at 37° C.) in serum-free medium. […] For stimulation, cells were treated with 100 ng/ml SCF for 3 min at room temperature. After cell lysis quantification of receptor autophosphorylation was assessed in 96 well plates via sandwich-ELISA using a kinase specific capture antibody and an anti-phosphotyrosine detection antibody.

[3] = test system: EOL-1 (acute myeloid eosinophilic leukemia); test: CellTiter-Blue Cell Viability Assay, EOL-1; assay type: cell-based; conditions: Homo sapiens, EOL1
Protocol: as §1

[4] = test system: MONO-MAC-6 (acute monocytic leukemia); test: CellTiter-Blue Cell Viability Assay, MONO-MAC-6; assay type: cell-based; conditions: Homo sapiens
Protocol: as §1

[5] = Solubility test by UV-Vis spectroscopy of saturated solutions; assay type: physicochemical; conditions: saturated solution; for Solubility Water: ultrapure water
Protocol: All UV-Vis measurements were carried out with an Agilent Cary 60 UV-Vis 2.00 between 800-200 nm. The absorbance was measured with a scan rate of 300.0 nm/min, a data interval of 0.50 nm and an UV-Vis Average Time of 0.10 s. For all measurements a cuvette with 10 mm light path was used. A calibration curve was plotted from several different concentrations and the solubility of the respective compound was determined by measuring the absorbance of a diluted saturated solution. As a blank curve a mixture of ultrapure water and ethanol in a ratio of 1:1 or 5:95 was recorded. For the calibration curve a 100 μM or a 10 μM solution of the compound in an ultrapure water:ethanol (1:1) or (5:95)-mixture was prepared and diluted to obtain at least 6 concentrations. […] The supernatant was taken using a syringe and filtered through a syringe filter (RC Membrane). The saturated solution was diluted with ultrapure water and ethanol to obtain an appropriate concentration in a water:ethanol (1:1) or (5:95)-mixture. The long wave absorbance maximum was used for determination of the solubility (mean values, determination in triplicate). […] By plotting the concentration of the solution against the absorbance values at the previously determined wavelength maximum a calibration curve was obtained (FIG. 1B).

[6] = test system: MOLM-13 (acute myeloid leukemia); test: CellTiter-Blue Cell Viability Assay, MOLM-13; assay type: cell-based; conditions: Homo sapiens
Protocol: as §1

[7] = target: T2, human FLT3-ITD (Homo sapiens, UniProt P36888); test: Cellular FLT3-ITD phosphorylation assay in MEF-FLT3-ITD cells (sandwich-ELISA); assay type: cell-based; conditions: 90 min compound, FLT3-ligand stimulation, read-out: IC50 FLT3-ITD [nM] in phosphorylation assay
T2 sequence (P36888 1-993): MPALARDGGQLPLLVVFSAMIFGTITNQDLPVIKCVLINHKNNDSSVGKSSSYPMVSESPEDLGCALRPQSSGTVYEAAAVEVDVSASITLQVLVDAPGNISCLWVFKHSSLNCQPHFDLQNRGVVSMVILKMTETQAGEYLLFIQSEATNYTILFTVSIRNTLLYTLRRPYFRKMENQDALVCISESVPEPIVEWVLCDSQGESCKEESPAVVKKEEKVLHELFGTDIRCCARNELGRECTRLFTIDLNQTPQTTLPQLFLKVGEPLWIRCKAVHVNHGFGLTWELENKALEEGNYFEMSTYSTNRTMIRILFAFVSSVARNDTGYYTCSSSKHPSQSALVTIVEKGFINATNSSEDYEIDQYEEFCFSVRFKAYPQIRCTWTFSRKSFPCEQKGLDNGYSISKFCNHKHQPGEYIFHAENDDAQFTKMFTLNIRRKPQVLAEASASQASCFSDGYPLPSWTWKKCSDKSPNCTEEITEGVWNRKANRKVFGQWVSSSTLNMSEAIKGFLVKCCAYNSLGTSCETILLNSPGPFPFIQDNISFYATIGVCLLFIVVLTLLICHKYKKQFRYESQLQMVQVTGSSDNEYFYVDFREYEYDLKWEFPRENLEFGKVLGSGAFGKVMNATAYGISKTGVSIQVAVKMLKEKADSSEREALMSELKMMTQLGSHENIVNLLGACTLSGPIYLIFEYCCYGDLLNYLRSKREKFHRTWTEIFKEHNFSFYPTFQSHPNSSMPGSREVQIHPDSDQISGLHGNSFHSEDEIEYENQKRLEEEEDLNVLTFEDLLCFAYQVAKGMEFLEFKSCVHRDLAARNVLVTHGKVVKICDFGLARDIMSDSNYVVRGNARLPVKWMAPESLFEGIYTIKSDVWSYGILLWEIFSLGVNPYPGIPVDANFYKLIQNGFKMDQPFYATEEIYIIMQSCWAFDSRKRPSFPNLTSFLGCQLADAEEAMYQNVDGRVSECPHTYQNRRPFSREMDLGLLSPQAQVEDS
Protocol: In the cellular FLT3-ITD phosphorylation assay the murine embryonal fibroblast cell line (MEF) was used, which expresses a high level of exogenously introduced full-length human FLT3-ITD. Stimulation of these cells with human FLT3-Ligand results in receptor tyrosine autophosphorylation. MEF-FLT3-ITD cells were plated in DMEM supplemented with […] in multiwell cell culture plates. After serum-starvation overnight cells were incubated with compounds (90 min at 37° C.) in serum-free medium. […] For stimulation, cells were treated with 50 ng/ml FLT3-ligand for 5 min at room temperature. After cell lysis quantification of receptor autophosphorylation was assessed in 96 well plates via sandwich-ELISA using a kinase specific capture antibody and an antiphosphotyrosine detection antibody.

[8] = test system: four hematological cell lines; test: CellTiter-Blue Cell Viability Assay, all four hematological cell lines; assay type: cell-based; conditions: geometric mean over EOL-1, MOLM-13, MONO-MAC-1, MONO-MAC-6; read-out: IC50 [μM] Geomean
Protocol: as §1

[9] = Solubility test by UV-Vis spectroscopy of saturated solutions; assay type: physicochemical; conditions: solvent DMSO
[10] = test system: subcutaneous MV4-11 CDX model; test: In vivo efficacy study in subcutaneous MV4-11 CDX model in NOD/SCID mice; conditions: for number of living subjects, day of study 5 / number of living subjects, day of study 6 / number of living subjects, day of study 8 / number of living subjects, day of study 13 / number of living subjects, day of study 26 / number of living subjects, day of study 36: 5 mice
[11] = In vivo MTD study in non-tumor bearing NOD/SCID mice
Protocol: . Group information and dosing details can be seen in the following Table 7.
. Acclimatization occurred for at least 14 days. […] Dosing of 34c was done as a solution in deionized water, initiated on day 1 and continued for 5 days. One mouse in the 50 mg/kg po group and one in the 75 mg/kg po group lost more weight than 10% in the dosing phase of the study. The weight loss in the 50 mg/kg group was observed after receiving three doses of 34c and after receiving four doses of 34c in the […]. A dosing break was made until the end of dosing for both mice and after a couple of days during the 10-day observation period both mice regained their weight. The body weight was measured daily for all three oral treatment groups for the 5 days of dosing and the following 10-day observational period. The mean relative body weight of the oral treatment group can be seen in FIG. 2. […] Since this observation was made only after dosing, it can be considered it was not caused by the compound.

CN1CCN(Cc2c(O)ccc3[nH]c(C(=O)c4cc5cc(NC(=O)Nc6cc(C(C)(C)C)on6)ccc5o4)cc23)CC1 [Compound 33b, 1-(5-(tert-Butyl)isoxazol-3-yl)-3-(2-(5-hydroxy-4-((4-methylpiperazin-1-yl)methyl)-1H-indole-2-carbonyl)benzofuran-5-yl)urea bis(2,2,2-trifluoroacetate)]
IC50 [1]: 0.1 µM | IC50 [2]: 3.2 nM | IC50 [3]: 0.05 nM | IC50 [4]: 0.00431 µM | Solubility Ethanol ([5]; bis(2,2,2-trifluoroacetate)): 3630 µg/mL (≈ 6.36 mM) | IC50 [6]: 0.00109 µM | IC50 [7]: 6.9 nM | IC50 [8]: 0.00223 µM

CN(C)Cc1c(O)ccc2[nH]c(C(=O)c3cc4cc(NC(=O)Nc5cc(C(C)(C)C)on5)ccc4o3)cc12 [Compound 34b, 1-(5-tert-Butylisoxazol-3-yl)-3-(2-(4-((dimethylamino)methyl)-5-hydroxy-1H-indole-2-carbonyl)benzofuran-5-yl)urea 2,2,2-trifluoroacetate]
IC50 [1]: 0.1 µM | IC50 [2]: 1.8 nM | IC50 [3]: 0.02 nM | IC50 [4]: 0.00065 µM | Solubility Ethanol ([5]; 2,2,2-trifluoroacetate): 5940 µg/mL (≈ 11.5 mM) | Solubility Water ([5]; 2,2,2-trifluoroacetate): <100 µg/mL | IC50 [6]: 0.0002 µM | Solubility DMSO [9]: Soluble | IC50 [7]: 3.1 nM | IC50 [8]: 0.00074 µM

CN(C)Cc1c(O)ccc2[nH]c(C(=O)c3cc4cc(NC(=O)Nc5cc(C(C)(C)C)on5)ccc4o3)cc12 [Compound 34c, 1-(5-(tert-Butyl)isoxazol-3-yl)-3-(2-(4-(dimethylamino)methyl)-5-hydroxy-1H-indole-2-carbonyl)benzofuran-5-yl)urea Hydrochloride]
first death (day of study) ([10]; 20 mg/kg po daily 5 days): 9 days | study day after which 1 mouse had to be sacrificed ([10]; 20 mg/kg po daily 5 days (treatment group 2)): 20 days | number of living subjects, day of study 5 ([10]; 20 mg/kg po daily 5 days): 5 | number of living subjects, day of study 6 ([10]; 20 mg/kg po daily 5 days): 5 | number of living subjects, day of study 8 ([10]; 20 mg/kg po daily 5 days): 5 | number of living subjects, day of study 13 ([10]; 20 mg/kg po daily 5 days): 4 | number of living subjects, day of study 26 ([10]; 20 mg/kg po daily 5 days): 4 | number of living subjects, day of study 36 ([10]; 20 mg/kg po daily 5 days): 0 | relative tumor volume, compared with reference compounds ([10]; 20 mg/kg po daily 5 days, Midostaurin 50 mg/kg, Hydrochloride): better results regarding tumor volume measurements than Midostaurin; also recorded: higher efficiency than midostaurin | number of living subjects, day of study 5 ([10]; 50 mg/kg po daily 5 days): 5 | number of living subjects, day of study 6 ([10]; 50 mg/kg po daily 5 days): 5 | number of living subjects, day of study 8 ([10]; 50 mg/kg po daily 5 days): 5 | number of living subjects, day of study 13 ([10]; 50 mg/kg po daily 5 days): 5 | number of living subjects, day of study 26 ([10]; 50 mg/kg po daily 5 days): 5 | number of living subjects, day of study 36 ([10]; 50 mg/kg po daily 5 days): 5 | deaths until day 36 ([10]; 50 mg/kg po daily 5 days, Hydrochloride): No deaths were observed; also recorded: no deaths were noted | relative tumor volume, compared with reference compounds ([10]; 50 mg/kg po daily 5 days, references 50 mg/kg, Hydrochloride): similarly active as Quizartinib; also recorded: much more active than Midostaurin; also recorded: significantly increased efficiency of 34c compared to midostaurin; also recorded: comparable to the efficiency of quizartinib at the same dose | efficacy and tolerability in terms of overall survival / death counts ([10]; 34c 20 and 50 mg/kg, references 50 mg/kg, po daily 5 days, Hydrochloride): better tolerated; also recorded: significantly better efficacy and tolerability in terms of overall survival than midostaurin; also recorded: significantly better efficiency and tolerability (in terms of overall survival) than quizartinib | relative body weight loss ([10]; po daily 5 days, 34c 20 and 50 mg/kg, Midostaurin and Quizartinib 50 mg/kg): less relative body weight loss | Solubility Ethanol ([5]; Hydrochloride): 2380 µg/mL | Solubility Water ([5]; Hydrochloride): 5770 µg/mL | clinical signs ([11]; 20 mg/kg and 50 mg/kg po treatment groups): no clinical signs observed | clinical signs ([11]; 75 mg/kg po, the mouse which lost weight, noticed only after dosing, considered not caused by the compound): swelling of the right hind limb and foot | possible (tolerated) dose according to tolerability study ([11]; female, NOD/SCID, mouse, in vivo, po, 5 days): up to 75 mg/kg | body weight loss in the dosing phase ([11]; one mouse in the 50 mg/kg po group and one in the 75 mg/kg po group, daily, 5 days): > 10%

Source: patent publication US20260184702A1, “SYNTHESIS, PHARMACOLOGY AND USE OF NEW WATER-SOLUBLE AND SELECTIVE FMS-LIKE TYROSINE KINASE3 (FLT3) INHIBITORS” (Universität Regensburg, priority 2022, published 2026)
